Assay results reported in patent US20250090437A1, “COSMETIC COMPOUNDING AGENT, COSMETIC AND PRODUCTION METHOD THEREOF” (MIYOSHI OIL & FAT CO., LTD., priority 2019, published 2025).

Key:
[1] = Water retention property test 1; assay type: physicochemical; conditions: 80 wt % aqueous solution
Description: A moisture rate after 24 hours was again measured (post-test moisture rate: B), followed by using the formula below to calculate a rate of reduction in moisture so as to evaluate the water retention property. • Pre-test moisture rate: A (%) • Post-test moisture rate: B (%)

[2] = Water retention property test 2 (hydrates); assay type: physicochemical; conditions: hydrate (anhydrides: aqueous solution at mono- to trihydrate concentration); for Pre-test moisture rate: before the test; for Post-test moisture rate / Rate of reduction in moisture: unsealed, 24 hours at 40° C. and 25% RH
Description: (2) Water retention property test 2 The water retention property of the hydrate of each compound was evaluated. Hydrates were used in the cases of the compounds C1 to C38, C40 to C49 and C56 to C59; however, since the compounds C39 and C62 to C64 were anhydrides, there were used aqueous solutions prepared by adding water so that a concentration would be that of monohydrate to trihydrate. The moisture rate of the sample(s) was confirmed using a Karl Fischer moisture meter (pre-test moisture rate: A). Next, 1.0 g of each of these samples was added to a screw tube, and this screw tube, while remaining unsealed, was then left to stand still for 24 hours in a thermo-hygrostat set to 40° C. and 25% RH. A moisture rate after 24 hours was again measured (post-test moisture rate: B), followed by calculating a rate of reduction in moisture in a similar manner as above so as to evaluate the water retention property. Here, a comparative evaluation was performed on each hydrate of the compounds C1 to C38, C40 to C49 and C56 to C59 together with an aqueous solution(s) of the compound C39 having a concentration(s) corresponding to the numbers of these hydration waters.
(monohydrates in compounds C1 to C38, C40 to C49 and C56 to C59 of working examples C62 to C99, C103 to C116 with compound C39 of working example C100, compound C62 of comparative example C4, compound C63 of comparative example C7 and compound C64 of comparative example C10)
(dihydrates in compounds C1 to C38, C40 to C49 and C56 to C59 of working examples C62 to C99, C103 to C116 with compound C39 of working example C101, compound C62 of comparative example C5, compound C63 of comparative example C8 and compound C64 of comparative example C11)
(trihydrates in compounds C1 to C38, C40 to C49 and C56 to C59 of working examples C62 to C99, C103 to C116 with compound C39 of working example C102, compound C62 of comparative example C6, compound C63 of comparative example C9 and compound C64 of comparative example C12)

[3] = unsealed, 24 hours at 40° C. and 25% RH

SMILES	Water retention property test 1 Pre-test moisture rate [1]	Water retention property test 1 Post-test moisture rate ([1]; 24 hours at 40° C. and 25% RH)	Water retention property test 1 Rate of reduction in moisture ([1]; 24 hours at 40° C. and 25% RH)	Pre-test moisture rate [2]	Post-test moisture rate [2]	Rate of reduction in moisture [2]	further results
CC(O)C(=O)O.NCCO (stereo not drawn) [Compound C1]	20.0%	19.3%	3.5%				
CC(O)C(=O)O.OCCNCCO [Compound C2]	20.0%	19.0%	4.8%				
NC(CO)(CO)CO.O=C(O)CC(O)(CC(=O)O)C(=O)O [Compound C21]	20.0% 20.0%	19.0%	5.1%				
CS(=O)(=O)O.NC(CO)(CO)CO [Compound C22]	20.0%	19.8%	1.2%				
CC(O)C(=O)O.N (stereo not drawn) [Compound C24]	20.0%	19.0%	4.9%				
CC(O)C(=O)[O-].CCC(CO)(CO)[N+](CC(O)CO)(CC(O)CO)CC(O)CO (stereo not drawn) [Compound C25]	20.0%	19.0%	5.0%				
CC(O)C(=O)[O-].OCC[N+](CCO)(CCO)CCO [Compound C26]	20.0%	19.0%	5.0%				
CC(=O)[O-].C[N+](C)(C)CCO [Compound C27]	20.0%	19.0%	5.0%				
C[N+](C)(C)CCO.O=C([O-])CO [Compound C28]	20.0%	19.4%	3.0%				
C[N+](C)(C)CCO.O=C([O-])C=CC(=O)O [Compound C30]	20.0%	19.0%	5.5%				
C[N+](C)(C)CCO.O=C([O-])CCC(=O)O [Compound C31]	20.0%	19.0%	5.5%				
CS(=O)(=O)[O-].C[N+](C)(C)CCO [Compound C32]	20.0%	19.6%	2.2%				
C[N+](C)(C)CCO.O=P([O-])(O)O [Compound C33]	20.0%	19.4%	3.0%				
C[N+](C)(C)CCO.O=[PH2][O-] [Compound C34]	20.0%	19.4%	3.0%				
CC[N+](C)(C)CCO.CS(=O)(=O)[O-] [Compound C36]	20.0%	19.6%	2.0%				
C[N+](C)(CCO)CC(O)CO.[Cl-] (stereo not drawn) [Compound C37]	20.0%	18.3%	8.3%				
C[N+](C)(CCO)CC(O)C[N+](C)(C)CCO.[Cl-].[Cl-] [Compound C38]	20.0%	18.1%	9.5%				
NCCO.O=C1OC(C(O)CO)C(O)=C1O (stereo not drawn) [Compound C40]	20.0%	19.5%	2.3%				
O=C1OC(C(O)CO)C(O)=C1O.OCCNCCO (stereo not drawn) [Compound C41]	20.0%	19.2%	4.1%				
O=C1OC(C(O)CO)C(O)=C1O.OCCN(CCO)CCO (stereo not drawn) [Compound C42]	20.0%	19.1%	4.4%				

SMILES	Water retention property test 1 Pre-test moisture rate [1]	Water retention property test 1 Post-test moisture rate ([1]; 24 hours at 40° C. and 25% RH)	Water retention property test 1 Rate of reduction in moisture ([1]; 24 hours at 40° C. and 25% RH)	Pre-test moisture rate [2]	Post-test moisture rate [2]	Rate of reduction in moisture [2]	further results
CC(C)(C)CO [Compound C44]	20.0%	19.2%	4.7%				
CC(CO)CO [Compound C45]	20.0%	19.5%	2.5%				
CCC(C)(CO)CO [Compound C48]	20.0%	19.4%	2.9%				
CCC(O)C(O)C(O)C(O)CO (stereo not drawn) [Compound C56]							Pre-test moisture rate ([1]; before the test (Karl Fischer)): 20.0%; Post-test moisture rate [1, 3]: 19.7%; Rate of reduction in moisture [1, 3]: 1.7%
CC[N+](C)(C)CCO.CS(=O)(=O)[O-] [Working example C97]				7.8%	7.7%	1.9%	
C[N+](C)(CCO)CC(O)CO.[Cl-] (stereo not drawn) [Working example C98]				15.3%	14.0%	8.7%	
C[N+](C)(CCO)CC(O)C[N+](C)(C)CCO.[Cl-].[Cl-] [Working example C99]				10.5%	9.4%	10.2%	
CC(O)C(=O)[O-].CCCC[N+](CCCC)(CCCC)CCCC [Working example C100]				5.2%	4.9%	6.4%	
CC(O)C(=O)[O-].CCCC[N+](CCCC)(CCCC)CCCC [Working example C102]				14.0%	12.3%	12.0%	
NCCO.O=C1O[C@H]([C@@H](O)CO)C(O)=C1O [Working example C103]				13.2%	13.0%	1.5%	
CCC(N)(CO)CO.O=C1O[C@H]([C@@H](O)CO)C(O)=C1O [Working example C107]				10.9%	10.6%	2.8%	
NC(CO)(CO)CO.O=C1OC(C(O)CO)C(O)=C1O (stereo not drawn) [Working example C108]				10.8%	10.5%	2.8%	
NCC(O)C(O)C(O)C(O)CO.O=C1OC(C(O)CO)C(O)=C1O (stereo not drawn) [Working example C109]				9.2%	9.1%	1.1%	
C[N+](C)(C)CCO.O=C1OC(C(O)CO)C([O-])=C1O (stereo not drawn) [Working example C110]				11.4%	11.2%	1.8%	
C[N+](C)(C)CC(O)CC(=O)O.O=C1O[C@H]([C@@H](O)CO)C([O-])=C1O [Working example C111]				9.7%	9.6%	1.0%	
CC(=O)OCC[N+](C)(C)C.O=C1O[C@H]([C@@H](O)CO)C([O-])=C1O [Working example C112]				10.1%	9.9%	2.0%	
CC(C)(N)CO.CC(O)C(=O)O [Working example C113]				16.7%	16.3%	2.5%	
CC(N)(CO)CO.CC(O)C(=O)O [Working example C114]				15.6%	15.2%	2.8%	
CC(C)(N)CO.O=C1OC(C(O)CO)C(O)=C1O (stereo not drawn) [Working example C115]				12.0%	11.7%	2.9%	
CC(N)(CO)CO.O=C1O[C@H]([C@@H](O)CO)C(O)=C1O [Working example C116]				11.4%	11.1%	2.9%	
